Laboratory results: patent US20230399312A1, “SUBSTITUTED PYRIMIDINES AND METHODS OF USE” (THERAVANCE BIOPHARMA R&D IP, LLC, priority 2020, published 2023)

Tests used:
[1] = biological target: T1, recombinant human ALK5 (TGF-βR1) protein (Homo sapiens, UniProt P36897); assay: Biochemical ALK5 (TGF-βR1) assay to measure pKi (LANCE Ultra ULight kinase assay); conditions: apparent pKi, converted from pIC50 by Cheng-Prusoff
T1 construct: purchased Life Technologies PR9075A
T1 sequence (P36897 34-503): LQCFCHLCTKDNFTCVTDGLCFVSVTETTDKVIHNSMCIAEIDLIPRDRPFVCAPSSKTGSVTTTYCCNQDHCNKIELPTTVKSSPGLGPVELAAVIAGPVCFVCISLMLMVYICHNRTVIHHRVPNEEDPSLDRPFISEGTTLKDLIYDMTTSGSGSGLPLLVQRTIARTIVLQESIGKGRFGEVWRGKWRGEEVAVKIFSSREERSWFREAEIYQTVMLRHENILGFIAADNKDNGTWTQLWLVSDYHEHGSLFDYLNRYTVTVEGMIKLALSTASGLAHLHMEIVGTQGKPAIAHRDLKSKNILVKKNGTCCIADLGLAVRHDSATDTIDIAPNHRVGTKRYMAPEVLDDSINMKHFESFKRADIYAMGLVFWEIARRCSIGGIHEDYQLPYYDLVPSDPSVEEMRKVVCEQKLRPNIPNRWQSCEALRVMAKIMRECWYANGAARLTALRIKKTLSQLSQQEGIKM
Procedure, shortened: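 Read-out was LANCE Ultra TR-FRET with a europium anti-phospho-Topo IIα Thr1342 antibody after EDTA quench. Kinase reaction ran 60 min at 37 °C with ATP added from a 125 μM 5× stock, after 60 min compound–enzyme equilibration at room temperature. Values are pKi from Cheng-Prusoff conversion of fitted pIC50.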

[2] = tested on: TGF-β-stimulated SMAD3 phosphorylation in BEAS-2B cells; assay: Cellular ALK5 potency assay, inhibition of TGF-β stimulated pSMAD3 formation in BEAS-2B cells; assay type: cell-based; conditions: Homo sapiens, pSMAD3, TGF-β 10 ng/mL, read-out: BEAS2B pIC50 (converted)
Procedure, shortened: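 Human lung epithelial BEAS-2B cells were pre-treated with compound for 1 h at 37 °C, then stimulated with TGF-β (final 10 ng/mL) for 30 min before lysis. pSMAD3 was quantified by AlphaLISA and pIC50 derived from dose-dependent signal change versus TGF-β-stimulated untreated cells.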

Structure (SMILES)	Ki [1]	IC50 [2]
Cc1cccc(-c2nccc(Nc3ccnc(Nc4ccc(CN5C[C@H](C)NC[C@@H]5C)cc4)n3)n2)n1 [Compound 453, N2-[4-[[(2S,5S)-2,5-dimethylpiperazin-1-yl]methyl]phenyl]-N4-[2-(6-methyl-2-pyridyl)pyrimidin-4-yl]pyrimidine-2,4-diamine]	0.0398 to 0.316 nM	25.1 to 158 nM
Cc1cccc(-c2nccc(Nc3ccnc(Nc4ccc(NS(=O)(=O)CC5CCCNC5)cc4)n3)n2)n1 (stereo not shown) [Compound 106, N-(4-((4-((2-(6-methylpyridin-2-yl)pyrimidin-4-yl)amino)pyrimidin-2-yl)amino)phenyl)-1-(piperidin-3-yl)methanesulfonamide]	0.0398 to 0.316 nM	25.1 to 158 nM
Cc1cccc(-c2nccc(Nc3ccnc(Nc4ccc(NS(=O)(=O)C5CNC5)cc4)n3)n2)n1 [Compound 296, N-[4-[[4-[[2-(6-methyl-2-pyridyl)pyrimidin-4-yl]amino]pyrimidin-2-yl]amino]phenyl]azetidine-3-sulfonamide]	0.398 to 3.16 nM	200 to 1260 nM
Cc1cccc(-c2nccc(Nc3ccnc(Nc4ccc(N5CCN(C)CC5)cn4)n3)n2)n1 [Compound 267, N2-[5-(4-methylpiperazin-1-yl)-2-pyridyl]-N4-[2-(6-methyl-2-pyridyl)pyrimidin-4-yl]pyrimidine-2,4-diamine]	0.398 to 3.16 nM	25.1 to 158 nM
Cc1cccc(-c2cccc(Nc3ccnc(Nc4ccc(N5CCOCC5)cc4)n3)n2)n1 [Compound 1000, N4-[6-(6-methyl-2-pyridyl)-2-pyridyl]-N2-(4-morpholinophenyl)pyrimidine-2,4-diamine]	3.98 to 31.6 nM	25.1 to 158 nM
Cc1cccc(-c2nccc(Nc3ccnc(Nc4cc(C(=O)OCC5CNC5)ccn4)n3)n2)n1 [Compound 608, azetidin-3-ylmethyl 2-[[4-[[2-(6-methyl-2-pyridyl)pyrimidin-4-yl]amino]pyrimidin-2-yl]amino]pyridine-4-carboxylate]	3.98 to 31.6 nM	200 to 1260 nM
Cc1cccc(-c2nc(Nc3ccnc(Nc4ccc(N5CCOCC5)cc4)n3)c3nn[nH]c3n2)n1 [Compound 340, N4-[5-(6-methyl-2-pyridyl)-3H-triazolo[4,5-d]pyrimidin-7-yl]-N2-(4-morpholinophenyl)pyrimidine-2,4-diamine]	0.0398 to 0.316 nM	200 to 1260 nM
Cc1cccc(-c2nccc(Nc3ccnc(Nc4ccc(Cc5ncco5)cc4)n3)n2)n1 [Compound 485, N4-[2-(6-methyl-2-pyridyl)pyrimidin-4-yl]-N2-[4-(oxazol-2-ylmethyl)phenyl]pyrimidine-2,4-diamine]	0.398 to 3.16 nM	25.1 to 158 nM
Cc1cccc(-c2nccc(Nc3ccnc(Nc4ccc(CN5CCC[C@@H](C(=O)O[C@@H]6CCN(C)C6)C5)cc4)n3)n2)n1 [Compound 341, [(3R)-1-methylpyrrolidin-3-yl] (3R)-1-[[4-[[4-[[2-(6-methyl-2-pyridyl)pyrimidin-4-yl]amino]pyrimidin-2-yl]amino]phenyl]methyl] piperidine-3-carboxylate]	0.0398 to 0.316 nM	25.1 to 158 nM
CNCCn1cc(-c2ccc(Nc3nccc(Nc4ccnc(-c5cccc(C)n5)n4)n3)cc2)cn1 [Compound 347, N2-(4-(1-(2-(methylamino)ethyl)-1H-pyrazol-4-yl)phenyl)-N4-(2-(6-methylpyridin-2-yl)pyrimidin-4-yl)pyrimidine-2,4-diamine]	0.0398 to 0.316 nM	25.1 to 158 nM
Cc1cccc(-c2nccc(Nc3ccnc(Nc4cc(F)c(NC(=O)C5CCNCC5)c(Cl)c4)n3)n2)n1 [Compound 184, N-[2-chloro-6-fluoro-4-[[4-[[2-(6-methyl-2-pyridyl)pyrimidin-4-yl]amino]pyrimidin-2-yl]amino]phenyl]piperidine-4-carboxamide]	0.0398 to 0.316 nM	25.1 to 158 nM
Cc1cccc(-c2nccc(Nc3ccnc(Nc4cncc(C(=O)OC[C@H]5CCCN5)c4)n3)n2)n1 [Compound 618, [(2R)-pyrrolidin-2-yl]methyl 5-[[4-[[2-(6-methyl-2-pyridyl)pyrimidin-4-yl]amino]pyrimidin-2-yl]amino]pyridine-3-carboxylate]	0.398 to 3.16 nM	25.1 to 158 nM
Cc1cccc(-c2nccc(Nc3ccnc(Nc4ccc(CN5CCN6CCCC6C5)cc4)n3)n2)n1 (stereo not shown) [Compound 129, N2-[4-(3,4,6,7,8,8a-hexahydro-1H-pyrrolo[1,2-a]pyrazin-2-ylmethyl)phenyl]-N4-[2-(6-methyl-2-pyridyl)pyrimidin-4-yl]pyrimidine-2,4-diamine]	0.0398 to 0.316 nM	25.1 to 158 nM
Cc1cccc(-c2nccc(Nc3ccnc(Nc4ccc(CN5CCS(=O)(=O)CC5)cc4)n3)n2)n1 [Compound 417, N2-[4-[(1,1-dioxo-1,4-thiazinan-4-yl)methyl]phenyl]-N4-[2-(6-methyl-2-pyridyl)pyrimidin-4-yl]pyrimidine-2,4-diamine]	0.0398 to 0.316 nM	25.1 to 158 nM
Cc1cccc(-c2nccc(Nc3ccnc(Nc4ccc(CC5CNC5)cc4)n3)n2)n1 [Compound 280, N2-[4-(azetidin-3-ylmethyl)phenyl]-N4-[2-(6-methyl-2-pyridyl)pyrimidin-4-yl]pyrimidine-2,4-diamine]	0.0398 to 0.316 nM	25.1 to 158 nM

The next lines start with results.

Ki [1]	Structure (SMILES)	IC50 [2]
0.0398 to 0.316 nM	Cc1cccc(-c2nccc(Nc3ccnc(Nc4cc(C(=O)OC5CCNCC5)cs4)n3)n2)n1 [Compound 85, 4-piperidyl 5-[[4-[[2-(6-methyl-2-pyridyl)pyrimidin-4-yl]amino]pyrimidin-2-yl]amino]thiophene-3-carboxylate]	25.1 to 158 nM
0.0398 to 0.316 nM	Cc1cccc(-c2nccc(Nc3ccnc(Nc4ccc(S(=O)(=O)N5CCN(C(C)C)CC5)cc4)n3)n2)n1 [Compound 213, N2-[4-(4-isopropylpiperazin-1-yl)sulfonylphenyl]-N4-[2-(6-methyl-2-pyridyl)pyrimidin-4-yl]pyrimidine-2,4-diamine]	25.1 to 158 nM
0.398 to 3.16 nM	Cc1ccc(O)cc1-c1nccc(Nc2ccnc(Nc3ccc(N4CCNCC4)cc3)n2)n1 [Compound 179, 4-methyl-3-[4-[[2-(4-piperazin-1-ylanilino)pyrimidin-4-yl]amino]pyrimidin-2-yl]phenol]	25.1 to 158 nM
0.0398 to 0.316 nM	Cc1cccc(-c2nccc(Nc3ccnc(Nc4ccc(C(=O)N5CCNCC5)cc4)n3)n2)n1 [Compound 290, [4-[[4-[[2-(6-methyl-2-pyridyl)pyrimidin-4-yl]amino]pyrimidin-2-yl]amino]phenyl]-piperazin-1-yl-methanone]	25.1 to 158 nM
0.0398 to 0.316 nM	Cc1cccc(-c2nccc(Nc3ccnc(Nc4ccc(CN5CCN(CC(C)C)CC5)cc4)n3)n2)n1 [Compound 533, N2-[4-[(4-isobutylpiperazin-1-yl)methyl]phenyl]-N4-[2-(6-methyl-2-pyridyl)pyrimidin-4-yl]pyrimidine-2,4-diamine]	25.1 to 158 nM
0.0398 to 0.316 nM	COC(=O)C1CNCCN1c1ccc(Nc2nccc(Nc3ccnc(-c4cccc(C)n4)n3)n2)cc1 (stereo not shown) [Compound 204, methyl 1-[4-[[4-[[2-(6-methyl-2-pyridyl)pyrimidin-4-yl]amino]pyrimidin-2-yl]amino]phenyl]piperazine-2-carboxylate]	25.1 to 158 nM
0.0398 to 0.316 nM	COC[C@H]1CN(Cc2ccc(Nc3nccc(Nc4ccnc(-c5cccc(C)n5)n4)n3)cc2)CCN1 [Compound 64, N2-[4-[[(3R)-3-(methoxymethyl)piperazin-1-yl]methyl]phenyl]-N4-[2-(6-methyl-2-pyridyl)pyrimidin-4-yl]pyrimidine-2,4-diamine]	25.1 to 158 nM
0.0398 to 0.316 nM	CC[C@@H](C)OC(=O)Cc1cc(Nc2nccc(Nc3ccnc(-c4cccc(C)n4)n3)n2)ccc1N1CCNCC1 [Compound 13, (R)-sec-butyl 2-(5-((4-((2-(6-methylpyridin-2-yl)pyrimidin-4-yl)amino)pyrimidin-2-yl)amino)-2-(piperazin-1-yl)phenyl)acetate]	25.1 to 158 nM
0.398 to 3.16 nM	Cc1cccc(-c2nccc(Nc3ccnc(Nc4cccc(C(=O)O[C@H]5CCN(C)C5)c4)n3)n2)n1 [Compound 308, [(3S)-1-methylpyrrolidin-3-yl] 3-[[4-[[2-(6-methyl-2-pyridyl)pyrimidin-4-yl]amino]pyrimidin-2-yl]amino]benzoate]	200 to 1260 nM
0.0398 to 0.316 nM	COC(=O)CC1CN(Cc2cccc(Nc3nccc(Nc4ccnc(-c5cccc(C)n5)n4)n3)c2)CCN1 (stereo not shown) [Compound 411, methyl 2-[4-[[3-[[4-[[2-(6-methyl-2-pyridyl)pyrimidin-4-yl]amino]pyrimidin-2-yl]amino]phenyl]methyl]piperazin-2-yl]acetate]	25.1 to 158 nM
0.0398 to 0.316 nM	Cc1cccc(-c2nccc(Nc3ccnc(Nc4cccc(NC(=O)C5CNC5)c4)n3)n2)n1 [Compound 154, N-[3-[[4-[[2-(6-methyl-2-pyridyl)pyrimidin-4-yl]amino]pyrimidin-2-yl]amino]phenyl]azetidine-3-carboxamide]	25.1 to 158 nM
